Measured values published in patent US4950602A, “Inhibition of lactate production by pyruvate adducts” (Cornell Research Foundation, Inc., priority 1987, dated 1990).
Like-named read-outs stand apart in the source and are kept apart here.

Key:
lactate dehydrogenase = assay: Reactive α-keto and α-hydroxy acids as inhibitors of lactate dehydrogenase; format: biochemical
Method: (§1) Each of the enzymes was assayed by procedures in which change of absorbance at 340 nm due to NADH was followed essentially as described by Bergmeyer (1974, Methods of Enzymatic Analysis, 2nd Eng. Ed., Verlag Chemie Weinheim Academic Press, N.Y.) with the following exceptions. Phosphofructokinase was assayed according to the method of Lai et al (1984, J. Neurochem., 42:438-446). NAD^+ -linked isocitrate dehydrogenase was assayed as described by Lai and Clark (1976, Biochem. J., 154:423-432). Pyruvate and α-ketoglutarate dehydrogenase complexes were respectively assayed according to the methods of Lai and Sheu (1985, J. Neurochem., 45:1861-1868) and Lai and Cooper (1986) (J. Neurochem, 47:1376-1386).

[1] = biological target: T1, beef heart lactate dehydrogenase (Bos taurus, UniProt Q5E9B1); assay: Inhibition of beef heart lactate dehydrogenase (NADH absorbance at 340 nm); format: biochemical, bovine; settings: for Relative Activity (%) Beef Heart: 0.24 mM pyruvate, 0.1 mM NADH, pH 7.2, 25° C.
T1 construct: purchased Worthington Biochemical Corporation (Freehold, N.J.); host or cells: beef heart
T1 sequence (Q5E9B1 whole entry): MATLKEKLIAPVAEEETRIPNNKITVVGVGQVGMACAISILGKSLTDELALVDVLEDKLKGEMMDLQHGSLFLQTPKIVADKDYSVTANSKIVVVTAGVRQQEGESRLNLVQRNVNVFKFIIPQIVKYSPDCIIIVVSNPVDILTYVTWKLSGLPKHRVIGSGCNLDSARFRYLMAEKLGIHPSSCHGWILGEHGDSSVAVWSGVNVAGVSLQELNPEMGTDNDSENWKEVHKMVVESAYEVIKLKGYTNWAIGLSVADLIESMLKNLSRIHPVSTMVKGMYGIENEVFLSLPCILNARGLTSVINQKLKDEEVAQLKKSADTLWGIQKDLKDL
Description: Enzymes and enzyme assays. Rabbit muscle glyceraldehyde-3-phosphate dehydrogenase (80 U/mg: ammonium sulfate suspension), rabbit muscle glycerol-3-phosphate dehydrogenase (40 U/mg; ammonium sulfate suspension),beef liver glutamate dehydrogenase (120 U/mg: in 50% glycerol), mitochondrial pig heart malate dehydrogenase (1100 U/mg; in 50% glycerol) and yeast hexokinase (140 U/mg; ammonium sulfate suspension) were purchased from Boehringer Mannheim Corp. (Indianapolis). Beef heart lactate dehydrogenase (280 U/mg) was purchased from Worthington Biochemical Corporation (Freehold, N.J.). Porcine heart L-alanine aminotransferase (130 U/mg), rabbit muscle phosphofructokinase (140 U/mg; ammonium sulfate suspension), bovine heart α-ketoglutarate (8 U/mg) and pyruvate (5 U/mg) dehydrogenase complexes, sodium pyruvate, L-methionine-SR-sulfoximine, DL-vinylglycine, NAD^+, NADH and NAD^+ analogues (3-acetylpyridine, thionicotinamide, and 3-pyridinealdehyde adenine dinucleotides) were purchased from Sigma Chemical Company (St. Louis, Mo.).
as §1
(§2) The reaction mixture (1 ml) contained 0.24 mM sodium pyruvate, 0.1 mM
(§3) NADH, 100 mM potassium phosphate buffer (pH 7.2) and either purified
(§4) bovine heart lactate dehydrogenase (0.01 U) or rat brain homogenate
(§5) containing ~0.02 U of lactate dehydrogenase activity; 25° C.
(§6) Since APADpyruvate adduct and RAP have a tendency to revert to pyruvate
(§7) they were added to the reaction mixture just prior to addition of enzyme.
(§8) Because the kinetics obtained with tightbinding inhibitors depends on the
(§9) order of addition of substrates and inhibitors the enzyme was always adde
(§10) last. Each value is the average of at least 3 determinations. Each of the […]

[2] = biological target: lactate dehydrogenase (dogfish enzyme) (Squalus acanthias, UniProt P00341); settings: Burgner and Ray 1984; cited from earlier work
Chain of lactate dehydrogenase (dogfish enzyme) (P00341 whole entry): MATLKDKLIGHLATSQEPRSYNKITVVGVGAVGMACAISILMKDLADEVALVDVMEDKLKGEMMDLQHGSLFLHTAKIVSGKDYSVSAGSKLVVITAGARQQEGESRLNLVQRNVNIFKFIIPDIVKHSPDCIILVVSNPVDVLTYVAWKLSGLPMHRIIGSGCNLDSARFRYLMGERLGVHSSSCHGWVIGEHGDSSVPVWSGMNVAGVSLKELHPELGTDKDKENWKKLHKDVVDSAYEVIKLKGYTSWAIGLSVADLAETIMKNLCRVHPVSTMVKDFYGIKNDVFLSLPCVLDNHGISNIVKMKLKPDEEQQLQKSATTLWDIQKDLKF

[3] = cited from earlier work; for stability in solution: Burgner and Ray 1984
[4] = tested on: rat brain lactate dehydrogenase; assay: Inhibition of rat brain lactate dehydrogenase (rat brain homogenate); format: biochemical; settings: rat brain homogenate, 0.24 mM pyruvate, 0.1 mM NADH, pH 7.2, 25° C.
Method: as §1, §2, §3, §4, §5, §6, §7, §8, §9, §10

[5] = tested on: dogfish liver glutamate dehydrogenase; settings: concentration that inhibited chicken H4 lactate dehydrogenase by 59%; Everse et al 1971; cited from earlier work
[6] = biological target: yeast alcohol dehydrogenase (Saccharomyces cerevisiae, UniProt P00330); settings: concentration that inhibited chicken H4 lactate dehydrogenase by 59%; Everse et al 1971; cited from earlier work
Chain of yeast alcohol dehydrogenase (P00330 whole entry): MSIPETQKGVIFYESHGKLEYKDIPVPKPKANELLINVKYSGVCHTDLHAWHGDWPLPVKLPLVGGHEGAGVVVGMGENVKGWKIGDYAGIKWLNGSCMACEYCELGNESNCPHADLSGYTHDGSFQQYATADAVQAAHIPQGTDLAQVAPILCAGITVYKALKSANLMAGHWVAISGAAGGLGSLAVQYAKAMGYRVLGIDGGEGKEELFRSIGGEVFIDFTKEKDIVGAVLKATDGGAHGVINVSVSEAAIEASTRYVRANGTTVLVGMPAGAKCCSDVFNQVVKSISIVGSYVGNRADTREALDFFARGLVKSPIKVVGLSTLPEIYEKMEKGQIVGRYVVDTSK

[7] = biological target: chicken H4 lactate dehydrogenase (Gallus gallus, UniProt P00337); settings: concentration not given; Everse et al 1971; cited from earlier work
Chain of chicken H4 lactate dehydrogenase (P00337 whole entry): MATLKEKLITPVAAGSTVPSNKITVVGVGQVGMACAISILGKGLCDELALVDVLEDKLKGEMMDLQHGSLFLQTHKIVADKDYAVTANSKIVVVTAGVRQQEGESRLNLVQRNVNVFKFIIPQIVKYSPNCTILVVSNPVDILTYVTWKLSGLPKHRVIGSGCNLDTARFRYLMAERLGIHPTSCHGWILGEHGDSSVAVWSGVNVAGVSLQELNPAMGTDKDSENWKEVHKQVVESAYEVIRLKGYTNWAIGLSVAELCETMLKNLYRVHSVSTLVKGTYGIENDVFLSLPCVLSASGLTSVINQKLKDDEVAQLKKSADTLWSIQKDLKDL

[8] = biological target: pig heart mitochondrial malate dehydrogenase (Sus scrofa, UniProt P00346); settings: concentration that inhibited chicken H4 lactate dehydrogenase by 59%; Everse et al 1971; cited from earlier work
Chain of pig heart mitochondrial malate dehydrogenase (P00346 25-338): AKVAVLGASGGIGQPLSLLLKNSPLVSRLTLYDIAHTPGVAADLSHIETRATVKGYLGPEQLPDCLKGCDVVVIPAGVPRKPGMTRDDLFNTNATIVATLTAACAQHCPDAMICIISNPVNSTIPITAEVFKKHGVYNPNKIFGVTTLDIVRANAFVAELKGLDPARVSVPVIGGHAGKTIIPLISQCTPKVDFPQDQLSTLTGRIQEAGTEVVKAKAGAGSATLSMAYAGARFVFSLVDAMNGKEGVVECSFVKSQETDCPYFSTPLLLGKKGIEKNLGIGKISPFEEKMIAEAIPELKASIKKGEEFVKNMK

[9] = biological target: horse liver alcohol dehydrogenase (Equus caballus, UniProt P00327); settings: concentration that inhibited chicken H4 lactate dehydrogenase by 59%; Everse et al 1971; cited from earlier work
Chain of horse liver alcohol dehydrogenase (P00327 whole entry): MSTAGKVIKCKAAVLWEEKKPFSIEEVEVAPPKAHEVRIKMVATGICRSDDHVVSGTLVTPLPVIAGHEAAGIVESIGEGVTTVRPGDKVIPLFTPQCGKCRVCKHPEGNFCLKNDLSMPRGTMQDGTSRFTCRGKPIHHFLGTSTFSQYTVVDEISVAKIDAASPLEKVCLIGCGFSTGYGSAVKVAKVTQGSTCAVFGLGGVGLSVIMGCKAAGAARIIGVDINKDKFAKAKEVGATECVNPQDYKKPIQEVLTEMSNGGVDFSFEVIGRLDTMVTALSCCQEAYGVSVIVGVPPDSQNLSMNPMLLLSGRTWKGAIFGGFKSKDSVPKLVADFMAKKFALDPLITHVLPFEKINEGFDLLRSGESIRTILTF

With `CC=CC(=O)C(=O)O` [2-oxo-3-pentenoic acid] the “action on lactate dehydrogenase” value (lactate dehydrogenase) was “substrates, not inhibitors”.
With `CC(=O)C1=CN([C@@H]2O[C@H](COP(=O)(O)OP(=O)(O)OC[C@H]3O[C@@H](n4cnc5c(N)ncnc54)[C@H](O)[C@@H]3O)[C@@H](O)[C@H]2O)C=CC1CC(=O)C(=O)O` (stereo partly drawn) [Acetyl analogue, reference compound] the “Relative Activity (%) Beef Heart” value ([1]; additive 0.08 μM) was 90%, the “Relative Activity (%) Beef Heart” value ([1]; additive 0.42 μM) was 60% and the “Relative Activity (%) Beef Heart” value ([1]; additive 0.84 μM) was 21%. The Ki [2] was 0.1 nM, the stability in solution ([3]; pH 7.0) was “reverts to free pyruvate and APAD” and the stability in solution ([3]; pH 11.0) was “relatively stable”. The “Relative Activity (%) Rat Brain” value ([4]; additive 0.42 μM) was 61% and the “Relative Activity (%) Rat Brain” value ([4]; additive 0.84 μM) was 30%.
In the case of `NC(=O)C1=CN([C@@H]2O[C@H](COP(=O)(O)OP(=O)(O)OC[C@H]3O[C@@H](n4cnc5c(N)ncnc54)[C@H](O)[C@@H]3O)[C@@H](O)[C@H]2O)C=CC1CC(=O)C(=O)O` (stereo partly drawn) [NAD-pyruvate adduct], the “effect on dogfish liver glutamate dehydrogenase” value [5] is listed as “little effect”, the “Relative Activity (%) Beef Heart” value ([1]; additive 34 μM) is listed as 90% and the “Relative Activity (%) Beef Heart” value ([1]; additive 68 μM) is listed as 62%. For the same compound, the “Relative Activity (%) Beef Heart” value ([1]; additive 136 μM) was 38%, the Ki ([1]; calculated from Table 1 data with Km for NADH 2.5 μM, standard equation for a competitive inhibitor, read-out: Ki) was 2600 nM and the “effect on yeast alcohol dehydrogenase” value [6] was “little effect”. The “inhibition of chicken H4 lactate dehydrogenase” value [7] was 59%, the “effect on pig heart mitochondrial malate dehydrogenase” value [8] was “little effect” and the “stability (loss of absorbance at 340 nm)” value ([3]; Everse et al 1971) was “relatively unstable and easily oxidized”. The “Relative Activity (%) Rat Brain” value ([4]; additive 34 μM) was 48% and the “effect on horse liver alcohol dehydrogenase” value [9] was “little effect”.
In the case of `NC(=S)C1=CN([C@@H]2O[C@H](COP(=O)(O)OP(=O)(O)OC[C@H]3O[C@@H](n4cnc5c(N)ncnc54)[C@H](O)[C@@H]3O)[C@@H](O)[C@H]2O)C=CC1CC(=O)C(=O)O` (stereo partly drawn) [Thio analogue], the “Relative Activity (%) Beef Heart” value ([1]; additive 0.7 μM) is reported as 38%, the “Relative Activity (%) Beef Heart” value ([1]; additive 1.4 μM) is reported as 17% and the “Relative Activity (%) Rat Brain” value ([4]; additive 1.4 μM) is reported as 33%.
In the case of Vinylglycolate, the “action on lactate dehydrogenase” value (lactate dehydrogenase) is reported as “substrates, not inhibitors”.
